Assay [1] deals with T1, GHSR1a (Homo sapiens, UniProt Q92847).
T1 construct: expressed in transfected cells; host or cells: HEK293
The assay is described as follows: Calcium FLIPR assay, GHSR-1a antagonism (reduction of ghrelin response). The class given is cell-based. The conditions noted are these: HEK293/GHSR1a cells, ghrelin 10 nM. The essentials:
(§1)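 Cells stably carrying human GHSR1a were plated a day ahead, dye-loaded, then given test compound. Agonist activity was the calcium rise over 2 minutes after compound addition at t=20 sec; antagonist activity was the reduction of the response to 10 nM ghrelin added together with compound.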

In assay [2] the target is T1, GHSR1a. The assay is described as follows: Calcium FLIPR assay, GHSR-1a agonism. The class given is cell-based. Further details: Emax: unit not given here. To be noted: HEK293/GHSR1a cells. A digest of the protocol:
as §1

What is called IC50 is the concentration that gives 50% inhibition. For orientation: EC50 means the concentration at which the effect is half-maximal.

T1 sequence (Q92847 whole entry): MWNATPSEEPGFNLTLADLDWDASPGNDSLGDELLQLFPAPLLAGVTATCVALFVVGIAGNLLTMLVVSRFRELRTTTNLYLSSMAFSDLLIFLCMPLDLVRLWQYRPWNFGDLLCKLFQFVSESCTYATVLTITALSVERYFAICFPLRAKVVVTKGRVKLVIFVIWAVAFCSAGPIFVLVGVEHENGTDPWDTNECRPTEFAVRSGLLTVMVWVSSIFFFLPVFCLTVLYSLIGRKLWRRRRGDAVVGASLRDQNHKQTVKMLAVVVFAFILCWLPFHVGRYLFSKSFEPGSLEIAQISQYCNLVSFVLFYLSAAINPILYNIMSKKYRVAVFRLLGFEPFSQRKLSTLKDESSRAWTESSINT

As to `CC(NC(=O)N(C)C1CCN(C)CC1)c1ccc(-c2cncc(-c3cn[nH]c3)c2)c(Cl)c1Cl` (stereo not shown) [Compound H0707, 3-(1-(4-(5-(1H-pyrazol-4-yl)pyridin-3-yl)-2,3-dichlorophenyl)ethyl)-1-methyl-1-(1-methylpiperidin-4-yl)urea], at GHSR1a [1], the IC50 turned out to be 185 nM. For the same molecule, on GHSR1a [2], the EC50 is over 30000 nM.

Take `CC(NC(=O)N(C)C1CCN(C)CC1)c1ccc(CCCO)c(Cl)c1Cl` (stereo not shown) [Compound H0643, 3-(1-(2,3-dichloro-4-(3-hydroxypropyl)phenyl)ethyl)-1-methyl-1-(1-methylpiperidin-4-yl)urea]: the IC50 at GHSR1a [1] came to 22 nM. Besides, on GHSR1a [2], the EC50 is 83 nM and the Emax is recorded as 2660.

Regarding `CC(NC(=O)N(C)C1CCN(C)CC1)c1ccc(-c2ccoc2)c2ccccc12` (stereo not shown) [Compound H0598, 3-(1-(4-(furan-3-yl)naphthalen-1-yl)ethyl)-1-methyl-1-(1-methylpiperidin-\4-yl)urea], the IC50 at GHSR1a [1] was determined as 63 nM. In addition, the EC50 on GHSR1a [2] was 271 nM.

`CC(NC(=O)N(C)C1CCN(C)CC1)c1ccc(C#Cc2ccc(CO)s2)c(Cl)c1Cl` (stereo not shown) [Compound H0775, 3-(1-(2,3-dichloro-4-((5-(hydroxymethyl)thiophen-2-yl)ethynyl)phenyl)ethyl)-1-methyl-1-(1-methylpiperidin-4-yl)urea]: the IC50 on GHSR1a [1] was 74 nM. Further, the EC50 on GHSR1a [2] is over 5000 nM.

In the case of `C#Cc1ccc(C(C)NC(=O)N(O)C2CCN(C)CC2)c(Cl)c1Cl` (stereo not shown) [Compound H0745, 3-(1-(2,3-dichloro-4-ethynylphenyl)ethyl)-1-hydroxy-1-(1-methylpiperidin-4-yl)urea], the IC50 on GHSR1a [1] is 57 nM. For the same molecule, on GHSR1a [2], the EC50 turned out to be 97 nM and the Emax is 2391.

As to `CC(NC(=O)N(C)C1CCN(C)CC1)c1ccc(C#Cc2cncnc2)c(Cl)c1Cl` (stereo not shown) [Compound H0753, 3-(1-(2,3-dichloro-4-(pyrimidin-5-ylethynyl)phenyl)ethyl)-1-methyl-1-(1-methylpiperidin-4-yl)urea], on GHSR1a [1], the IC50 amounted to 60 nM. On GHSR1a [2], the EC50 was over 30000 nM.

Turning to `CC(NC(=O)N(C)C1CCN(C)CC1)c1ccc(-c2cnc(N3CCN(C)CC3)nc2)c(Cl)c1Cl` (stereo not shown) [Compound H0799, 3-(1-(2,3-dichloro-4-(2-(4-methylpiperazin-1-yl)pyrimidin-5-yl)phenyl)ethyl)-1-methyl-1-(1-methylpiperidin-4-yl)urea], the IC50 on GHSR1a [1] amounted to 5.4 nM. Moreover, on GHSR1a [2], the EC50 amounted to 14 nM and the Emax was found to be 5031.

For `CC(NC(=O)N(C)C1CCN(C)CC1)c1ccc(-c2cnc(CO)cn2)c(Cl)c1Cl` (stereo not shown) [Compound H0770, 3-(1-(2,3-dichloro-4-(5-(hydroxymethyl)pyrazin-2-yl)phenyl)ethyl)-1-methyl-1-(1-methylpiperidin-4-yl)urea], the IC50 at GHSR1a [1] is 700 nM. For the same molecule, on GHSR1a [2], the EC50 was 294 nM and the Emax came to 1783.

On to `CC(NC(=O)N(C)C1CCN(C)CC1)c1ccc2c(NC3CC3)noc2c1` (stereo not shown) [Compound H0787, 3-(1-(3-(cyclopropylamino)benzo[d]isoxazol-6-yl)ethyl)-1-methyl-1-(1-methylpiperidin-4-yl)urea], for which, at GHSR1a [1], the IC50 was 12000 nM. Moreover, the EC50 on GHSR1a [2] stood at 3000 nM.

For the molecule `CC(NC(=O)N(C)C1CCN(C)CC1)c1ccc(-c2nccnn2)c(Cl)c1Cl` (stereo not shown) [Compound H0793, 3-(1-(2,3-dichloro-4-(1,2,4-triazin-3-yl)phenyl)ethyl)-1-methyl-1-(1-methylpiperidin-4-yl)urea], at GHSR1a [1], the 50% inhibitory concentration (IC50) was found to be 21 nM. Further, on GHSR1a [2], the EC50 came to 22 nM and the Emax turned out to be 3501.

Regarding `CC(NC(=O)N(C)C1CCN(C)CC1)c1ccc(-c2ccc(C=O)s2)c(Cl)c1Cl` (stereo not shown) [Compound H0652, 3-(1-(2,3-dichloro-4-(5-formylthiophen-2-yl)phenyl)ethyl)-1-methyl-1-(1-methylpiperidin-4-yl)urea], the IC50 on GHSR1a [1] worked out at 7 nM. Moreover, at GHSR1a [2], the EC50 is 5 nM and the Emax worked out at 1500.
